# Laboratory results taken from publication PMC7955127, “Preclinical small molecule WEHI-7326 overcomes drug resistance and elicits response in patient-derived xenograft models of human treatment-refractory tumors” (Cell Death & Disease, 2021).
# Columns and labels:
# [1] = test system: 134056 HGSOC PDX; test: HGSOC PDX model 134056; type: in vivo, NSG mice; conditions: 134056 platinum-sensitive PDX; 20 mg/kg i.v. biweekly, 6 weeks
# Method: Two to three mm ovarian tumor fragments were subcutaneously engrafted in the left flank of NSG mice and monitored by physical palpation for tumor growth and engraftment. Engrafted tumors were measured twice a week using digital Vernier calipers and maximum tumor diameter + perpendicular tumor length were digitally recorded into the Study Director software (v 3.0/4.0 StudyLog). Tumor volume was calculated automatically (tumor volume (mm^3) = 0.5236 x [larger diameter (mm) x smaller diameter (mm)^2]). Mice were randomized to treatment once their tumor volume reach 180–300 mm^3 and tumor measurements were performed twice a week up to 120 days or when the tumor volume reaches 700 mm^3.
# Time to progressive disease (PD): Defined as the time (in days) from beginning of treatment to an increase in average tumor volume of >20% from the nadir (taken as the smallest average tumor volume recorded since treatment started or 200 mm^3 if nadir was <200 mm^3 as lesions smaller than this are difficult to measure with accuracy). Median time to harvest (TTH): Defined as the time (in days) from the beginning of treatment to day of harvest at 700 mm^3 and the median TTH was calculated and plotted using Kaplan-Meier curves. Based on ref. [27]. […]
# [2] = test system: porcine tubulin; test: Tubulin in vitro polymerization assay (fluorescence-based, BK011P); type: biochemical; conditions: purified tubulin
# Method: A commercial fluorescence-based tubulin polymerization assay (Cytoskeleton, Denver, CO; Cat. # BK011P) was used as per manufacturer’s instructions for detection of tubulin polymerization inhibitors. Briefly, porcine tubulin (3 mg/ml tubulin in 80 mM PIPES pH 7.0, 0.5 mM EGTA, 2 mM MgCl2, 1 mM GTP and 10% glycerol) was incubated at 37 °C with either vehicle control (DMSO), with Paclitaxel or antimitotic compound. Each condition was tested in duplicate. Polymerization was measured over time by excitation at 360 nm and emission at 420 nm in a temperature controlled 96-well plate fluorimeter (Envision 2105, Perkin-Elmer, Waltham, MS) equipped with filters for excitation at 340–360 nm and emission at 420–450 nm.
# [3] = test system: LIM 2537; test: Cell growth inhibition assay, LIM 2537; type: cell-based; conditions: Homo sapiens; LIM 2537, colon carcinoma; 72 h viability assay, CellTiterGlo; mean of 3 ± SEM; read-out: IC50 (inhibition of cellular proliferation)
# Method: (§1) Cells were plated at a density of between 500 to 5000 cells per well for adherent cell lines depending on doubling time, and 15,000 cells per well for lymphoblastic leukemia cell lines, in a 96-well plate in 200 μl of growth media. Plates were incubated overnight at 37 °C before adding the inhibitors. Inhibitors were serially diluted from the stock solutions in complete medium and added to the cells. […] Cell viability was assessed by the AlamarBlue (Invitrogen) or CellTiterBlue/Glo (Promega) method according to manufacturer’s instructions. The curve fits and IC50 values were generated in PRISM (GraphPad, San Diego, CA).
# [4] = test system: 322 T TNBC PDX; test: TNBC PDX model 322T; type: in vivo, NOD-SCID-IL2Rγc–/– mice
# Method: Cohorts of about 30 female mice were seeded with thawed single cell suspensions of early passage human breast tumors (passage 2 or 3). Briefly, 150,000–250,000 cells were resuspended in 10 µl of transplantation buffer (50% fetal calf serum, 10% of a 0.04% trypan blue solution and 40% PBS) and growth-factor-reduced Matrigel [BD] at a ratio of 3:1, and injected into the cleared mammary fat pads of 3- or 4-week-old NOD-SCID-IL2Rγc–/– female mice. Mice were monitored for tumor development three times weekly and tumor size measured using digital Vernier calipers. Tumor volume was estimated by measuring the minimum and maximum tumor diameters using the formula: (minimum diameter)^2 x (maximum diameter)/2. Once tumors arose, mice were randomized into treatment arms. Treatment was initiated when the tumor volume reached 80–120 mm^3. Randomization and tumor measurements were managed using the Study Director software (v 3.0, studylog). Mice were sacrificed at the first measurement where tumor volume exceeded 600 mm^3, or if their health deteriorated for reasons other than disease progression or drug toxicity (censored event).
# Mice were treated with either docetaxel (10 mg/kg; i.p.; once), cisplatin (4 mg/kg; i.p.; once) or WEHI-7326 (20 mg/kg; twice a week (Monday and Thursday); i.v.). Vehicle treated mice were administered with the vehicle for WEHI-7326. Docetaxel was resuspended at 2 mg/ml in PBS:Tween-80:ethanol = 90:5:5 (v/v/v). WEHI-7326 was resuspended at 2 mg/ml in saline.
# [5] = test system: CEM dEpoB30; test: Cell growth inhibition assay, CEM dEpoB30; type: cell-based; conditions: Homo sapiens; CEM dEpoB30, leukemia (taxane resistant, β-tubulin mutation); 72 h, Alamar Blue; mean of 3 ± SEM; read-out: IC50 (inhibition of cellular proliferation)
# Method: as §1
# Parental human lymphoblastic leukemia cells (CEM) and their drug resistant derivatives (dEpoB30 and dEpoB300) were cultured in the presence of increasing amounts of WEHI-7326, paclitaxel or epothilone B. Cell survival was determined as described in Experimental Procedures. Shown are mean of 3 experiments +/- SEM. Dose response curves were fitted in PRISM using non-linear regression (4 parameter logistic) to calculate IC50 values.
smiles,measurement,setting,value
COc1ccc(CNc2nc(NCc3ccc(CN)cc3)nc(NN3CC(=O)NC3=O)n2)cc1 [WEHI-7326],Median time to harvest (TTH),[1],78 days
same,Time to progressive disease (PD),[1],56 days
same,Effect on in vitro tubulin polymerization,[2]; 50 μM,markedly slowed tubulin polymerization
same,Effect on in vitro tubulin polymerization rates,"[2]; concentrations up to 15 μM, vs vehicle",did not affect
same,IC50,[3],58.9 ± 7.5 nM
same,Adverse effects in treatment arm,"[4]; 322 T PDX mice, 20 mg/kg i.v. twice a week, n = 10","1 sick, 1 found dead"
same,Survival time,"[4]; 322 T PDX, docetaxel 10 mg/kg i.p. once, WEHI-7326 20 mg/kg i.v. biweekly",18 days
same,IC50,[5],1.67 ± 0.04 nM
